The test system of the data set is rodent lifetime carcinogenesis bioassay, tumor incidence TD50. As to the kind of experiment: chronic cancer bioassays in animals – CPDB, compiled studies (AID 1745844).

“And” between values parts separate entries of the source, which are not always exact repeats. Equal values may be shown once. The source made the active and inactive calls. How the calls were made is not given here.

Regarding `O=C1CN(N=Cc2ccc([N+](=O)[O-])o2)C(=O)N1`, the TD50 (commonly the dose at which the toxic effect under study appears in half of the subjects) (mouse, strain B6C3F1, females, in feed, site: cervix uteri, lesion: leiomyosarcoma, dosed 64 weeks, study length 64 weeks) is 4000 mg/kg/day (inactive); the TD50 (mouse, strain B6C3F1, females, in feed, site: liver, lesion: hepatocellular adenoma + hepatocellular carcinoma + neoplastic nodule, dosed 103 weeks, study length 105 weeks) was 2330 mg/kg/day; the TD50 (mouse, strain B6C3F1, females, in feed, site: ovary, lesion: granulosa-cell tumor, benign + granulosa-cell tumor, malignant + mixed tumor, benign + tubular adenoma, dosed 103 weeks, study length 105 weeks) was determined as 866 mg/kg/day; the TD50 (mouse, strain B6C3F1, females, in feed, site: ovary, lesion: granulosa-cell tumor, benign + granulosa-cell tumor, malignant, dosed 103 weeks, study length 105 weeks) is 2560 mg/kg/day; the TD50 (mouse, strain B6C3F1, females, in feed, site: ovary, lesion: granulosa-cell tumor, benign, dosed 103 weeks, study length 105 weeks) is 8470 mg/kg/day; the TD50 (mouse, strain B6C3F1, females, in feed, site: ovary, lesion: granulosa-cell tumor, dosed 64 weeks, study length 64 weeks) was 4020 mg/kg/day (inactive). Also, the TD50 (mouse, strain B6C3F1, females, in feed, site: ovary, lesion: mixed tumor, benign + tubular adenoma, dosed 103 weeks, study length 105 weeks) was 1400 mg/kg/day; the TD50 (mouse, strain B6C3F1, females, in feed, site: ovary, lesion: mixed tumor, benign, dosed 103 weeks, study length 105 weeks) is 3380 mg/kg/day; the TD50 (mouse, strain B6C3F1, females, in feed, site: ovary, lesion: tubular adenoma, dosed 103 weeks, study length 105 weeks) was 2530 mg/kg/day; the TD50 (mouse, strain BDF1, males, in feed, site: lung, lesion: adenoma, dosed 104 weeks, study length 104 weeks) was 53900 mg/kg/day (inactive); the TD50 (mouse, strain Charles River CD1, females, in feed, site: liver, lesion: hemangioma, dosed 93 weeks, study length 100 weeks) is 4460 mg/kg/day (inactive); the TD50 (mouse, strain Charles River CD1, males, in feed, site: all sites, lesion: myeloid leukemia, dosed 93 weeks, study length 100 weeks) was 588 mg/kg/day (inactive). Besides, the TD50 runs as follows: (mouse, strain Charles River CD1, males, in feed, site: liver, lesion: hepatocellular adenoma, dosed 93 weeks, study length 100 weeks) 1200 mg/kg/day (inactive); (mouse, strain Charles River CD1, males, in feed, site: lung, lesion: alveolar-cell adenoma, dosed 93 weeks, study length 100 weeks) 833 mg/kg/day (inactive); (mouse, strain Charles River CD1, males, in feed, site: lung, lesion: alveolar-cell carcinoma, dosed 93 weeks, study length 100 weeks) 17000 mg/kg/day (inactive); (rat, strain Charles River CD (Sprague-Dawley), males, in feed, site: any site (literature study), lesion: malignant tumor, dosed 104 weeks, study length 104 weeks) 1200 mg/kg/day (inactive); (rat, strain Charles River CD (Sprague-Dawley), males, in feed, site: mammary gland, lesion: fibroadenoma, dosed 104 weeks, study length 104 weeks) 878 mg/kg/day (inactive); (rat, strain Fischer 344, females, in feed, site: clitoral gland, lesion: adenoma, dosed 103 weeks, study length 105 weeks) 93.7 mg/kg/day (inactive). In addition, the TD50 was 163 mg/kg/day and 698 mg/kg/day (rat, strain Fischer 344, males, in feed, site: kidney, lesion: tubule adenoma + tubule carcinoma, dosed 103 weeks, study length 105 weeks); 332 mg/kg/day (rat, strain Fischer 344, males, in feed, site: liver, lesion: hepatocellular adenoma + hepatocellular carcinoma + neoplastic nodule, dosed 103 weeks, study length 105 weeks); 303 mg/kg/day (rat, strain Fischer 344, males, in feed, site: subcutaneous tissue, lesion: fibroma, dosed 103 weeks, study length 105 weeks); 120 mg/kg/day (inactive) (rat, strain Holtzman albino (Sprague-Dawley derived), females, in feed, site: mammary gland, lesion: fibroadenoma, dosed 36 weeks, study length 54 weeks); 214 mg/kg/day (inactive) (rat, strain Holtzman albino (Sprague-Dawley derived), females, in feed, site: mammary tissue, wider than the gland, lesion: one or several types, types not named, dosed 44 weeks, study length 60 weeks); 185 mg/kg/day (inactive) (rat, strain Sprague-Dawley, females, in feed, site: any site (literature study), lesion: several types, types named in the paper, dosed 75 weeks, study length 80 weeks). In addition, the TD50 was determined as 64.2 mg/kg/day (rat, strain Sprague-Dawley, females, in feed, site: any site (literature study), lesion: several types, types named in the paper, dosed 104 weeks, study length 104 weeks) and 54.3 mg/kg/day (rat, strain Sprague-Dawley, females, in feed, site: mammary gland, lesion: fibroadenoma, dosed 104 weeks, study length 104 weeks). The carcinogen call runs as follows: (mouse, strain B6C3F1, males, in feed, site: any site (literature study), lesion: several types, types named in the paper, dosed 103 weeks, study length 105 weeks) “negative (inactive)”; (mouse, strain BDF1, females, in feed, site: any site (literature study), lesion: several types, types named in the paper, dosed 104 weeks, study length 104 weeks) “negative (inactive)”; (mouse, strain BDF1, females, in feed, site: liver, lesion: hemangioma, dosed 104 weeks, study length 104 weeks) “negative (inactive)”; (mouse, strain BDF1, females, in feed, site: lung, lesion: adenocarcinoma, dosed 104 weeks, study length 104 weeks) “negative (inactive)”; (mouse, strain BDF1, males, in feed, site: any site (literature study), lesion: several types, types named in the paper, dosed 104 weeks, study length 104 weeks) “negative (inactive)”; (mouse, strain BDF1, males, in feed, site: liver, lesion: adenoma, dosed 104 weeks, study length 104 weeks) “negative (inactive)”. Besides, the carcinogen call is “negative (inactive)” (mouse, strain BDF1, males, in feed, site: liver, lesion: hemangioma, dosed 104 weeks, study length 104 weeks); “negative (inactive)” (mouse, strain Charles River CD1, females, in feed, site: liver, lesion: hemangiosarcoma, dosed 93 weeks, study length 100 weeks); “negative (inactive)” (mouse, strain Charles River CD1, females, in feed, site: liver, lesion: hepatocellular adenoma, dosed 93 weeks, study length 100 weeks); “negative (inactive)” (mouse, strain Charles River CD1, females, in feed, site: lung, lesion: alveolar-cell adenoma, dosed 93 weeks, study length 100 weeks); “negative (inactive)” (mouse, strain Charles River CD1, females, in feed, site: lung, lesion: alveolar-cell carcinoma, dosed 93 weeks, study length 100 weeks); “negative (inactive)” (mouse, strain Charles River CD1, males, in feed, site: liver, lesion: hemangiosarcoma, dosed 93 weeks, study length 100 weeks). Besides, the carcinogen call is, setting by setting: (mouse, strain Charles River CD1, males, in feed, site: liver, lesion: hepatocellular carcinoma, dosed 93 weeks, study length 100 weeks) “negative (inactive)”; (rat, strain Charles River CD (Sprague-Dawley), females, in feed, site: any site (literature study), lesion: malignant tumor, dosed 104 weeks, study length 104 weeks) “negative (inactive)”; (rat, strain Charles River CD (Sprague-Dawley), females, in feed, site: any site (literature study), lesion: one or several types, types not named, dosed 104 weeks, study length 104 weeks) “negative (inactive)”; (rat, strain Charles River CD (Sprague-Dawley), females, in feed, site: mammary gland, lesion: several types, types named in the paper, dosed 104 weeks, study length 104 weeks) “negative (inactive)”; (rat, strain Charles River CD (Sprague-Dawley), males, in feed, site: any site (literature study), lesion: one or several types, types not named, dosed 104 weeks, study length 104 weeks) “negative (inactive)”; (rat, strain Fischer 344, males, in feed, site: urinary bladder, lesion: one or several types, types not named, dosed 104 weeks, study length 104 weeks) “negative (inactive)”.

Take `OCC(O)CCl` (stereo not drawn): the carcinogen call (rat, strain Charles River CD (Sprague-Dawley), females, by gavage, site: parathyroid, lesion: adenoma, dosed 72 weeks, study length 104 weeks) was “negative (inactive)”. Further, the TD50 (rat, strain Charles River CD (Sprague-Dawley), males, by gavage, site: parathyroid, lesion: adenoma, dosed 72 weeks, study length 104 weeks) is 116 mg/kg/day.

With `NC(=O)c1ccncc1`, where the note is “mouse, strain Swiss albino, females, in drinking water, site: liver, lesion: hepatoma, dosed 121 weeks, study length 121 weeks”, the TD50 is 21300 mg/kg/day (inactive). The carcinogen call was “negative (inactive)” (mouse, strain Swiss albino, females, in drinking water, site: lung, lesion: several types, types named in the paper, dosed 121 weeks, study length 121 weeks) and “negative (inactive)” (mouse, strain Swiss albino, males, in drinking water, site: lung, lesion: several types, types named in the paper, dosed 117 weeks, study length 117 weeks).

As for `CS(=O)(=O)OCCCNCCCOS(C)(=O)=O`, the TD50 is 1.17 mg/kg/day (inactive) (mouse, strain B6C3F1, females, i.p., site: any site (literature study), lesion: several types, types named in the paper, dosed 52 weeks, study length 86 weeks); 6.88 mg/kg/day (mouse, strain B6C3F1, females, i.p., site: lung, lesion: alveolar/bronchiolar adenoma + alveolar/bronchiolar carcinoma, dosed 52 weeks, study length 86 weeks); 37.7 mg/kg/day (inactive) (mouse, strain B6C3F1, males, i.p., site: all sites, lesion: lymphoma, dosed 52 weeks, study length 78 weeks); 2.07 mg/kg/day (mouse, strain B6C3F1, males, i.p., site: any site (literature study), lesion: several types, types named in the paper, dosed 52 weeks, study length 78 weeks); 0.616 mg/kg/day (rat, strain Sprague-Dawley, females, i.p., site: any site (literature study), lesion: several types, types named in the paper, dosed 36 weeks, study length 80 weeks); 5.01 mg/kg/day (rat, strain Sprague-Dawley, females, i.p., site: liver, lesion: hepatocellular adenoma + hepatocellular carcinoma + neoplastic nodule, dosed 36 weeks, study length 80 weeks). Further, the TD50 is 2.74 mg/kg/day (rat, strain Sprague-Dawley, females, i.p., site: peritoneum, lesion: fibrosarcoma + sarcoma, NOS, dosed 36 weeks, study length 80 weeks); 1.3 mg/kg/day (rat, strain Sprague-Dawley, males, i.p., site: any site (literature study), lesion: several types, types named in the paper, dosed 36 weeks, study length 80 weeks); 0.915 mg/kg/day (rat, strain Sprague-Dawley, males, i.p., site: peritoneum, lesion: fibrosarcoma + fibroma + sarcoma, NOS, dosed 36 weeks, study length 80 weeks).

(Values after PubChem BioAssay AID1745844 (Carcinogenic Potency Database (CPDB), 2022).)
